Laboratory results taken from patent US9546157B2, “Asymmetric piperidinyl-substituted ureas as medicines” (Helsinn Healthcare SA, priority 2014, dated 2017).
Entries after “also recorded” stand apart in the source; their conditions may differ.

Columns and labels:
GHSR1a [1] = biological target: T1, GHSR1a (Homo sapiens, UniProt Q92847); test: Calcium FLIPR assay, GHSR-1a antagonism (reduction of ghrelin response); type: cell-based; settings: HEK293/GHSR1a cells, ghrelin 10 nM
T1 construct: expressed in transfected cells; host or cells: HEK293
In short: (§1)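 Calcium flux measured by FLIPR in GHSR1a-expressing HEK293 cells after 30-60 min dye preloading. Compound was added at t=20 sec, alone for agonism or with ghrelin (10 nM) for antagonism, and fluorescence recorded for 2 minutes. EC50 and IC50 were estimated from dose-response data.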

GHSR1a [2] = biological target: T1, GHSR1a; test: Calcium FLIPR assay, GHSR-1a agonism; type: cell-based; design: Emax: unit not given here; settings: HEK293/GHSR1a cells
In short: as §1

C57BL/6J mice = test: Food intake test in mouse (GHSR1a antagonists); type: in vivo; settings: for inhibition in vivo at 10 mg/kg: Mus musculus, ip, 1 h, i.p. 10 mg/kg
In short: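 Male C57BL/6J mice (18-22 g) were fasted overnight (16 h before dosing), then randomized by body weight to vehicle or test agent (n=6 each). Cumulative food intake was measured at 1, 2, 4, 8 and 24 hrs post-dose as premeasured food minus uneaten food.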

[3] = Metabolic Stability (H = Human); type: in vitro ADME
[4] = Metabolic Stability (M = Mouse); type: in vitro ADME
Metabolic Stability (R) = type: in vitro ADME; settings: R (not defined)
Metabolic Stability (D) = type: in vitro ADME; settings: D (not defined)
rat = test: Food intake in rat (PO, with or without ANA); type: in vivo
[5] = test system: female Sprague-Dawley rats; test: Binge eating model in non-estrous female rats (food restriction + stress, HPF intake); type: in vivo, rat; settings: for HPF intake (binge eating) in R+S rats: 60 mg/kg by gavage 1 h before access to HPF
Experimental: In this Example, the therapeutic potential of compounds were tested for their ability to inhibit binge eating. The animal model used was developed to explore the combination of food restriction and stress. […] Considering the reliability and the robustness of this model, it was adopted to test the inventive compounds.
A total of N=117, 52-day-old female Sprague-Dawley rats (175-200 g) were used. Rats were acclimated in individual cages with metallic walls; the floor and the front wall made of metallic grid. The dimensions of the cage floor being 30 cm×30 cm; the cage is 30 cm high. A front door (30 cm×20 cm) made of metallic grid was positioned in the anterior wall of the cage to gain access to the inside of the cage; the remaining part of the front wall was equipped with a drinking burette.
Rats were kept in a room at constant temperature (20-22° C.) and humidity (45-55%) under a 12-h light/dark cycle (lights on at 08:00 am) with ad lib chow and water. All procedures were conducted in adherence to the European Community Directive for Care and Use of Laboratory Animals.
Rats were offered food pellets, 4RF18, Mucedola, Settimo Milanese, Italy (2.6 kcal/g). The Highly Palatable Food (HPF) was prepared by mixing:
Rats were exposed to 3 consecutive 8-day cycles followed by the final test on day 25:
a) the control group (NR+NS) had chow ad libitum for 4 days, on days 5-6 it received chow+HPF for 2 h; on days 7-8 it had chow ad libitum; on day 25 it was not exposed to stress;
b) the second group (R+S) had chow restricted to 66% of the normal intake for 4 days, was offered chow and HPF (2 h) on days 5-6 and only chow on days 7-8; on day 25 it […].
Body weights and food intake were recorded daily. Food intake is expressed as mean kilocalories per kilogram ingested±SEM.
Therefore, immediately after the test on day 25, vaginal smears were collected and analyzed under microscope to assess the ovarian phase, and data from rats in the estrous phase were not included in the statistical analysis. Vaginal smears were analyzed by an experienced experimenter blind to treatment conditions.
For 15 min, the container (China coffee cup) containing HPF is placed outside the cage; the container handle is hooked to the top wire wall of the cage in the hollow part where food pellets are usually offered. In these conditions, the animal is able to see the cup in which it received HPF on days 5, 6, 13, and 14 of the first two cycles, is able to see in part the HPF itself, and is able to smell its odour. In this 15-min period, the rat engages in repeated movements of the forepaws, head, and trunk aimed at obtaining the HPF, but it is not able to reach it. Rats undergo the stressful procedure between 10.00 and 12.00 am. After 15 min, the cup is placed inside the cage of the rats in the stress group (R+S), so that the HPF became accessible to the rat.
100 mg of each compound (H0816, H0860, H0847 and H0900) was accurately weighed and suspended in 13.33 ml of 0.5% carboxymethyl cellulose sodium salt (CMC, Sigma-Aldrich Cat. C4888, lot 120M0216V) solution. The lower dose solution was prepared by dilution of 30 mg/ml suspension with 0.5% CMC solution. Suspensions were prepared freshly on test day. Vehicle was composed by a solution of 0.5% carboxymethyl cellulose sodium salt and was prepared by dissolving 1 g of CMC in 200 ml of distilled water. 180 mg of Topiramate was accurately weighed and suspended in 12 ml of 0.5% CMC solution. Compounds (vehicle and active principles) were administered by gavage in a volume of 4 ml/kg of body weight one hour before access to HPF.
All data are expressed as the mean±s.e.m. and each value reflects the mean number of animals per group as described in the legends. For data evaluation, the analysis of variance (ANOVA) was used followed by post-hoc (Bonferroni's) test when appropriate. Statistical significance was set at P<0.05. The Software used for the Graphs was Origin 7.0. […]

[6] = first test, acute administration (compounds 3 and 30 mg/kg, Topiramate 60 mg/kg)
[7] = second test, H0816 3, 10 and 30 mg/kg, Topiramate 60 mg/kg

T1 sequence (Q92847 whole entry): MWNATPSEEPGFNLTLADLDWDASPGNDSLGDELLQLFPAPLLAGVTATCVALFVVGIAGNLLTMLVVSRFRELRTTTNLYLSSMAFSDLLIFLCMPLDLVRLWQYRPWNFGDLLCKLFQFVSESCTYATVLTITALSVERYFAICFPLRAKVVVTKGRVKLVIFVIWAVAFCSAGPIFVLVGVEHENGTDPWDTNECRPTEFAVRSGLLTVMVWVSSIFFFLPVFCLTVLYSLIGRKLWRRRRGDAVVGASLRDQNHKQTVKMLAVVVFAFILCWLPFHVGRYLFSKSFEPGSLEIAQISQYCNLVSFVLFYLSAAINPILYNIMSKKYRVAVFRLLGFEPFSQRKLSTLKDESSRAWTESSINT

SMILES | IC50 (GHSR1a [1]) [nM] | EC50 (GHSR1a [2]) [nM] | Metabolic Stability H [3] | Metabolic Stability M [4] | Metabolic Stability R (Metabolic Stability (R)) | Metabolic Stability D (Metabolic Stability (D)) | Mouse Food Intake, result in words (C57BL/6J mice; PO, dose not given) | also measured
CC(NC(=O)N(C)C1CCN(C)CC1)c1ccc(C#Cc2cscn2)c(Cl)c1Cl (stereo not shown) [Compound H0751, 3-(1-(2,3-dichloro-4-(thiazol-4-ylethynyl)phenyl)ethyl)-1-methyl-1-(1-methylpiperidin-4-yl)urea] | 6 | 62 | High H High M | High H High M |  |  | no effect | Emax (GHSR1a [2]): 1267; inhibition in vivo at 10 mg/kg (C57BL/6J mice): 91%; Food intake in rat, result in words (rat; PO + ANA): no effect
CC(NC(=O)N(Cc1ccccc1)C1CCN(C)CC1)c1ccc(-c2cnccn2)c(Cl)c1Cl (stereo not shown) [Compound H0825, 1-benzyl-3-(1-(2,3-dichloro-4-(pyrazin-2-yl)phenyl)ethyl)-1-(1-methylpiperidin-4-yl)urea] | 10 | > 30000 | Medium H Medium M Medium R | Medium H Medium M Medium R | Medium H Medium M Medium R |  |  | 
CCN(C(=O)NC(C)c1ccc(-c2cnccn2)c(Cl)c1Cl)C1CCN(C)CC1 (stereo not shown) [Compound H0826, 3-(1-(2,3-dichloro-4-(pyrazin-2-yl)phenyl)ethyl)-1-ethyl-1-(1-methylpiperidin-4-yl)urea] | 5 | > 30000 | High | High | High | Medium |  | 
CN1CC[C@@H](N(C)C(=O)NC(c2ccc(-c3cnccn3)c(Cl)c2Cl)C(F)(F)F)C(C)(C)C1 (stereo partly drawn) [Compound H0865, 3-(1-(2,3-dichloro-4-(pyrazin-2-yl)phenyl)-2,2,2-trifluoroethyl)-1-methyl-1-((R)-1,3,3-trimethylpiperidin-4-yl)urea] | 6 | > 30000 | Medium | Low | Medium |  |  | 
CC1(C)O[C@@H]2[C@@H](CO[C@@]3(COS(N)(=O)=O)OC(C)(C)O[C@@H]23)O1 [Topiramate, reference compound] |  |  |  |  |  |  |  | HPF intake (binge eating) in R+S rats ([5]; first test, vs R+S vehicle, 60 mg/kg): confirmed its inhibitory effect; also recorded: statistically significant at all time points; also recorded: completely abolished BE episode; 2-h chow food intake during binge eating test [5, 6]: did not modify 2-h chow intake; 24-h chow food intake after binge eating test [5, 6]: did not modify 24-h chow intake; HPF intake (binge eating) in R+S rats ([5]; second test): statistically significant at all time points; 2-h chow intake [5, 7]: did not modify; 24-h chow intake [5, 7]: did not modify

Second part, led by results:

IC50 (GHSR1a [1]) [nM] | EC50 (GHSR1a [2]) [nM] | Metabolic Stability H [3] | Metabolic Stability M [4] | Metabolic Stability R (Metabolic Stability (R)) | Metabolic Stability D (Metabolic Stability (D)) | SMILES | Mouse Food Intake, result in words (C57BL/6J mice; PO, dose not given) | also measured
2 | > 30000 | High H High M High R High D | High H High M High R High D | High H High M High R High D | High H High M High R High D | C[C@H](NC(=O)N(C)C1CCN(C)C1)c1ccc(-c2cnccn2)c(Cl)c1Cl (mixture of isomers) [Compound H0837, 3-((S)-1-(2,3-dichloro-4-(pyrazin-2-yl)phenyl)ethyl)-1-methyl-1-(1-methylpyrrolidin-3-yl)urea] |  | Mouse Food Intake % increase (C57BL/6J mice; 2 h, 30 mg/kg PO mice): 180%; Mouse Food Intake, result in words (C57BL/6J mice; PO 10 mg/kg + ANA (ANAM) 30 mg/kg mice): NSE
5 | > 30000 | High H High M | High H High M |  |  | CC(NC(=O)N(C)C1CCN(C)CC1)c1ccc(C#Cc2ccco2)c(Cl)c1Cl (stereo not shown) [Compound H0762, 3-(1-(2,3-dichloro-4-(furan-2-ylethynyl)phenyl)ethyl)-1-methyl-1-(1-methylpiperidin-4-yl)urea] | NSEt | inhibition in vivo at 10 mg/kg (C57BL/6J mice): 93%; Food intake in rat, result in words (rat; PO): NSEt
4 | > 30000 | High H High M | High H High M |  |  | CC(NC(=O)N(C)C1CCN(C)CC1)c1ccc(-c2cncc(F)n2)c(Cl)c1Cl (stereo not shown) [Compound H0795, 3-(1-(2,3-dichloro-4-(6-fluoropyrazin-2-yl)phenyl)ethyl)-1-methyl-1-(1-methylpiperidin-4-yl)urea] | NSE | Mouse Food Intake, result in words (C57BL/6J mice; PO + ANA (ANAM), mice, dose not given): inhib; Food intake in rat, result in words (rat; PO + ANA): no activity
3 | > 30000 | High | High | High | Medium | CN1CCC(N(C)C(=O)NC(c2ccc(-c3cnccn3)c(Cl)c2Cl)C(F)(F)F)CC1 (stereo not shown) [Compound H0830, 3-(1-(2,3-dichloro-4-(pyrazin-2-yl)phenyl)-2,2,2-trifluoroethyl)-1-methyl-1-(1-methylpiperidin-4-yl)urea] |  | 
